For orientation: melting point means the temperature of the solid-liquid transition. Regarding `CS(=O)(=O)Oc1ccccc1CC(=O)O`, the melting point amounted to 110 °C.

`CC(C)OC(=O)C1(F)C(=O)NC(=O)NC1O/N=C\c1ccco1` (configuration not stated) came in with a melting point of 131 to 134 °C.

`C[C@]1(CN2CCC(Cc3ccc(OC(F)(F)F)cc3)CC2)Cn2cc([N+](=O)[O-])nc2O1`: the melting point lay within 111 to 112 °C.

Molecule `CCCCCC(C)Nc1nnc(-c2cccc(Oc3ccc(C(C)(C)C)cc3)c2)s1` (configuration not stated) came in with a melting point of 115 to 116 °C.

`CCCCCCC(C(=O)O)n1nnc(NC(=O)c2ccccc2C(=O)O)n1` (configuration not stated): the melting point fell in the range of 140 to 142 °C.

As for `O=C(Nc1ccc(-c2ncno2)cc1)Oc1ccc([N+](=O)[O-])cc1`, the melting point lay in the range of 210 to 212 °C.

`CC1(c2ccccc2)OC(C=Cc2ccsc2)=CC1=O` (configuration not stated) returned a melting point of 75 to 77 °C.

`CON=Cc1ccc2c(c1)ncn2-c1cccc(-c2cccs2)c1` had a melting point of 184 to 185 °C.

With `CCOC(=O)C(C)Oc1ccc2c(-c3ccc(Cl)cc3)noc2c1` (configuration not stated), the melting point worked out at 95 °C.

The molecule `CC(C)(C)[C@@H](O)c1cccc(-c2ccc(OCCO)cc2)n1` displayed a melting point of 104 °C.

In turn, `CCCCOC(=O)Nc1ccc2cnn(Cc3ccc(C(=O)NS(=O)(=O)c4ccccc4)cc3OC)c2c1` displayed a melting point of 153 to 154 °C.

`O=C(O)c1ccc(CN2C(=O)C3(COc4cc5c(cc43)OCCO5)c3ccccc32)cc1` (configuration not stated) registered a melting point of 234 to 237 °C.

As to `CCCCN(C1=C(O)C[C@@](CCc2cccc(O)c2)(C2CCCC2)OC1=O)c1ccccc1`, the melting point fell in the range of 64 to 66 °C.

In turn, `COc1cc2c(Nc3ccc(Sc4ccccn4)c(Cl)c3)c(C#N)cnc2cc1F` showed a melting point of 225 to 228 °C.

Molecule `CC(C)(C)c1ccc(S(=O)(=O)Nc2nc(Cl)ncc2Oc2ccccc2Cl)cc1` registered a melting point of 186 to 187 °C.

On to `O=C(Nc1nccs1)C(CC1CCCC1)c1ccc(Br)cc1` (configuration not stated), for which the melting point fell in the range of 201 to 202 °C.

As for `CNc1nc(C(C)c2ccc(-c3ccccc3)c(F)c2)cs1` (configuration not stated), the melting point lay within 144 to 145 °C.

The molecule `Nc1cccc(Oc2cccc(Oc3cccc(N)c3)c2)c1` yielded a melting point of 105 to 107 °C.

The molecule `c1cn(-c2cc(-n3ccnc3)ncn2)cn1` returned a melting point of 243 to 244 °C.

`CCN(C=C1C(=O)N(c2cccc(Cl)c2)c2ccccc21)CC` came in with a melting point of 74 to 75.5 °C.

For the molecule `CC(=O)C(Cc1cc(C(C)(C)C)c(O)c(C(C)(C)C)c1)(Cc1cc(C(C)(C)C)c(O)c(C(C)(C)C)c1)C(=O)OC1CC(C)(C)NC(C)(C)C1`, the melting point fell in the range of 177 to 178 °C.

Take `C#CCOc1cc(C(=O)O)cc([N+](=O)[O-])c1-c1ccccc1`: the melting point was in the range of 145 to 147 °C.

In turn, `O=C1CCc2cc(Cl)c(S(=O)(=O)Cl)cc21` gave a melting point of 146 to 148 °C.

With `CCCn1c(=O)c2[nH]c(/C=C/c3ccc(OC)cc3)nc2n(CCC)c1=O`, the melting point lay within 281 to 284 °C.

With `c1ccc(OCCn2c(CC3CC3)nc3cnc4cc(-c5ccccc5)ccc4c32)cc1`, the melting point was 175 to 176 °C.

`C=C(CN(C)C)C(O)c1ncc2c(c1O)COC2c1cccc(Cl)c1Cl` (configuration not stated) gave a melting point of 180 to 184 °C.

`CCCc1cn2cc(C(=O)OC)nc2s1`: the melting point is 155 to 156 °C.

In turn, `COc1cccc2c1CCC21OC(=O)c2ccccc21` (configuration not stated) displayed a melting point of 111 to 112 °C.

Molecule `Cn1nccc1CCS(=O)(=O)Cc1ccc(OCc2coc(C=Cc3ccc(C(F)(F)F)cc3)n2)cc1` gave a melting point of 204 °C.

`CCOC1=Nc2nc(C(C)(C)C)[nH]c2C2=N[C@H](Cc3ccccc3)CN12`: the melting point was 220 to 222 °C.

`CCCCC1=NSc2ccccc2N1Cc1ccc(-c2ccccc2C(=O)O)cc1` showed a melting point of 215 to 217 °C.

`CC(C)(C)OC(=O)NC1CCc2cccc(-c3ccccc3)c2CC1=O` (configuration not stated) had a melting point of 173 to 174 °C.

`CCOCCOc1ccc(C(=O)CN(Cc2ccccc2)Cc2ccccc2)cc1C(N)=O` yielded a melting point of 128 to 131 °C.

In the case of `CO[C@]12C[C@@H](CN3CCC(O)(c4cccc(C(F)(F)F)c4)CC3)CN(C)[C@@H]1Cc1c[nH]c3cccc2c13`, the melting point lay in the range of 135 to 140 °C.

The molecule `COc1ccc2c(c1)nnc1nnc(C)n12` showed a melting point of 259 to 261 °C.

Turning to `Cc1ccc(S(=O)(=O)N=CN(C)C)cc1Br`, the melting point was found to be 162 °C.

`COc1ccc(C2(CCN3CCC(C(=O)c4nc5ccccc5s4)CC3)CCN(C(=O)c3ccccc3)C2)cc1OC` (configuration not stated) registered a melting point of 74 to 76 °C.

The molecule `COc1ccc(Cn2c(=O)c3ccc(Cl)cc3n(CCCCBr)c2=O)cc1` gave a melting point of 107 to 109 °C.

`CC(Nc1nnc(-c2ccsc2)c2ccccc12)c1ccccc1` (configuration not stated) returned a melting point of 144 to 146 °C.

For `CS(=O)(=O)Nc1cc2occ(NS(C)(=O)=O)c(=O)c2cc1Oc1ccccc1`, the melting point is 199 to 200 °C.

Consider `CNCC1Cc2cc(OC)cc(-c3ccccc3F)c2O1` (configuration not stated), for which the melting point fell in the range of 110 to 112 °C.

Turning to `COc1cc(C2=CCCc3ccccc32)c(Cl)cc1C(=O)N1Cc2cccn2Cc2ccccc21`, the melting point is 209 to 210 °C.

Take `CCCCCCc1ccc(C#Cc2ccc(Br)cc2)cc1`: the melting point was found to be 67 °C.

Regarding `CS(=O)(=O)c1ccc(-c2cccn3nc(N)nc23)cc1`, the melting point lay in the range of 236 to 239 °C.

`O=C(Nc1ccccc1)N1CCN2C(=O)OC(c3ccccc3)(c3ccccc3)C2C1` (configuration not stated) came in with a melting point of 117 to 118 °C.

`NC(=O)C1=CN(CCCC(=O)NCCc2ccccc2)C=CC1`: the melting point lay within 55 to 60 °C.

The molecule `CO[C@@H]1CN(CCn2c(C)nc3ccccc3c2=O)CC[C@@H]1NC(=O)c1cc(Cl)c(N)c2c1OCC2` (relative stereo) displayed a melting point of 275 °C.

Molecule `O=CNNc1ccnc2c(NC(=O)c3c(Cl)cccc3Cl)cccc12` came in with a melting point of 261 to 263 °C.

The molecule `CCCCCCCCCCCCn1nnnc1Nc1ccccc1` gave a melting point of 108 to 111 °C.

Take `COc1ccc(C2c3cc(NC(=O)CC(C)(C)C)c(C)c(C)c3OC2(C)C)cc1` (configuration not stated): the melting point fell in the range of 169 to 170 °C.

Regarding `NS(=O)(=O)c1cc2cc(P(=O)(O)O)c(=O)[nH]c2cc1C(F)(F)F`, the melting point lay within 240 to 244 °C.

`CCc1c(-c2ccc(OCc3ccccc3)cc2)c2ccc3ccc(CO)c1n32` registered a melting point of 99 to 102 °C.

As to `COC1CSC2=C(SC1)C(OC(=O)N1CCN(C)CC1)N(c1ccc3ccc(C)nc3n1)C2=O` (configuration not stated), the melting point stood at 220 °C.

Regarding `CN(C)c1ncnc2c1ncn2C1CC(F)C(CO)O1` (configuration not stated), the melting point lay in the range of 105 to 107 °C.

In turn, `CCC(C)(C)NC(=O)n1nc(C)n(NC)c1=O` returned a melting point of 98 °C.

In the case of `CC(=O)Nc1nc(N(C(C)=O)C(C)=O)c(CC=O)c(=O)[nH]1`, the melting point lay within 169 to 170 °C.

Molecule `CC(C)(Cc1cc2nc(Cl)ccc2n1S(=O)(=O)c1ccccc1)C(=O)O` came in with a melting point of 208 to 211 °C.

`CCOC(=O)N1CCN(C(=O)OC2c3ccccc3C(=O)N2c2ccc(Cl)cn2)CC1` (configuration not stated) yielded a melting point of 160 °C.

`O=C(Nc1ncc(C(F)(F)F)o1)C1c2ccccc2Oc2ccc(F)cc21` (racemic) came in with a melting point of 217 °C.

As to `O=C(O)c1cc(COC2CCCCO2)ccc1COC1CCCCO1` (configuration not stated), the melting point lay within 107 to 108 °C.

The molecule `CC(=O)c1c(-c2ccncc2)sc(Cl)c1C` had a melting point of 60 to 61 °C.

Regarding `CCCC[C@H](NC(=O)[C@H](CCC(=O)OC(C)(C)C)NC(=O)OCc1ccccc1)C(=O)CSCc1ccco1`, the melting point lay in the range of 78 to 79 °C.

Take `COc1cccc(C(=O)n2c3c(c4ccccc42)CC(C(=O)O)CC3)c1` (configuration not stated): the melting point fell in the range of 197 to 200 °C.

`CC1=CC(C)(C)OC1=O` yielded a melting point of 54 to 55 °C.

For the molecule `C#CCCCCOc1cc(/C=C/C(=O)Nc2ccccc2C(=O)O)ccc1OC`, the melting point fell in the range of 135 to 137 °C.

The molecule `O=C(O)Cc1ccc2c(c1)CCC(C(F)(F)F)N2` (configuration not stated) displayed a melting point of 107 to 108 °C.

Regarding `Cc1ccc(-c2cc(F)c(F)cc2-c2ccc(S(N)(=O)=O)cc2)cc1`, the melting point lay within 103 to 104 °C.

As to `CC(C)c1nc(CCl)n(C)c1Sc1cc(Cl)cc(Cl)c1`, the melting point was 110 to 111 °C.

As for `O=c1[nH]nc(-c2ccccc2Nc2cccc(C(F)(F)F)c2)s1`, the melting point lay in the range of 157 to 160 °C.

In the case of `NC(=O)c1cnc2c([N+](=O)[O-])cccc2c1Cl`, the melting point was 277 to 279 °C.

In the case of `CNC(=O)NC(=O)N(C)c1ccccc1`, the melting point is 123 to 125 °C.

Consider `CC#CC1CCC(C2CCC(c3ccc(CCC)cc3)CC2)CC1` (configuration not stated), for which the melting point was found to be 70 °C.

For the molecule `CS(=O)(=O)c1cc(OCc2ccccc2)cs1`, the melting point was 108 to 109 °C.

As for `CC1(O)c2ccccc2-c2c1c(-n1ccnc1)nc1ccc(Br)cc21` (configuration not stated), the melting point lay in the range of 175 to 180 °C.

Molecule `CCOC(=O)c1nnc(SC)nc1NCc1ccc(OC)c(Cl)c1` returned a melting point of 101 to 105 °C.

`NS(=O)(=O)c1ccc(-c2[nH]c3ccc(F)cc3c2-c2ccccc2)cc1` yielded a melting point of 302 to 304 °C.

Consider `CCOC(=O)C(C(=O)Nc1ccc(Br)cc1C)=S(C)C`, for which the melting point was in the range of 146 to 149 °C.

For `CCCCCCn1c2cc(CO)ccc2c2ccc(CO)cc21`, the melting point was 98 to 99 °C.

Consider `CC(C)(C)OC(=O)n1cccc1-c1ccc2c(c1)C(C)(C)C(=O)N2`, for which the melting point is 168 to 170 °C.

In the case of `CC(c1ccc(F)c(F)c1F)n1ncc(-c2ccc(S(N)(=O)=O)cc2)c(-c2ccc(F)cc2)c1=O` (configuration not stated), the melting point was 192 to 194 °C.

In turn, `COc1cc(C=CC(=O)C(Cc2ccccc2)C(=O)C=Cc2ccc(O)c(OC)c2)ccc1O` (configuration not stated) registered a melting point of 139 to 141 °C.

`O=C1CC(c2ccccc2)CC(=O)C1C(=O)c1ccc(Cl)cc1[N+](=O)[O-]` (configuration not stated) showed a melting point of 144 to 145 °C.

In the case of `COCCNC(=O)C1CCCN1S(=O)(=O)c1ccc(Cl)c(COc2cccc3ccc(C)nc23)c1Cl` (configuration not stated), the melting point was 107 °C.

`Cc1nn(-c2c(Cl)cc(C(F)(F)F)cc2Cl)c(C)c1C=O` registered a melting point of 82 to 83 °C.

For `CN1CN(C)C(=S)N(c2ccccc2)C1`, the melting point lay in the range of 85 to 87 °C.

With `COc1cc2ncc(NC3CCCCC3)nc2cc1OC`, the melting point was in the range of 149 to 151 °C.

Consider `Cc1cc2cn[nH]c2c(C(=O)NC2(C3CC3)CC2)c1NC(=O)c1cc(Br)nn1-c1ncccc1Cl`, for which the melting point lay in the range of 170 to 173 °C.

These data come from a melting point compilation (Tetko et al.; mined from patent text by program, amines drawn as free bases though some values may be those of a salt).
